Results reported in patent publication US20080131511A1, “Pharmaceutical Composition for Treatment of Tear and Salivary Fluid Drying” (Astellas Pharma, Inc., priority 2004, published 2008).
Like-named read-outs stand apart in the source and are kept apart here.

Assays:
[1] = Phase I study, single oral administration: pharmacokinetics in plasma; assay type: in vivo, human; details: for Tmax / AUC / half-life / Cmax: male
Method: (§1) The compound A was orally administered once to healthy male adult volunteers, and saliva secretion action and pharmacokinetics were evaluated.
(§2) Drug administration to the volunteers was carried out by a blind method.
(§3) In order to observe the volunteers carefully, saliva quantity, sweating and pharmacokinetics (concentrations of unchanged compound A in plasma and urine) were periodically measured.

[2] = test system: healthy male adult volunteers; assay: Phase I study, single oral administration: saliva secretion; assay type: in vivo, human; details: for Increase of saliva secretion (number of subjects with the symptom): healthy male adult volunteers, 6 subjects
Method: as §1, §2, §3

[3] = human plasma, single oral 10 mg
[4] = human plasma, single oral 20 mg
[5] = human plasma, single oral 40 mg
[6] = human plasma, single oral 60 mg

Structure (SMILES): C=C1CC2(CCN(C)CC2)O[C@H]1C [compound A, (−)-(S)-2,8-dimethyl-3-methylene-1-oxa-8-azaspiro[4.5]decane]
- AUC0→∞ ([1]; human plasma, single oral 5 mg): 117.6 ± 41.5 ng/h/mL
- AUC0→∞ [1, 3]: 180.5 ± 77.6 ng/h/mL
- AUC0→∞ [1, 4]: 410.1 ± 106.8 ng/h/mL
- AUC0→∞ [1, 5]: 1,010.1 ± 323.2 ng/hr/ml
- AUC0→∞ [1, 6]: 1,482.3 ± 371.1 ng/hr/ml
- Tmax ([1]; plasma, oral, human test result which used general tablets containing the compound A): ~2 h
- AUC ([1]; plasma, oral, human, 20 mg administration): 410 ng·h/mL
- half-life ([1]; plasma, oral, human, 20 mg administration, read-out: T1/2 (converted)): 3.38 h
- AUC ([1]; plasma, human, 40 mg oral administration): 1010 ng·h/mL
- Cmax ([1]; plasma, human, oral 10 mg): 35.3 ± 10.5 ng/mL
- Cmax ([1]; plasma, human, oral 40 mg): 151 ± 24.1 ng/mL
- Cmax ([1]; human plasma, single oral 5 mg): 19.8 ± 5.2 ng/mL
- Tmax ([1]; human plasma, single oral 5 mg): 1.5 ± 0.55 h
- half-life ([1]; human plasma, single oral 5 mg, read-out: T½ (converted)): 3.89 ± 0.81 h
- Tmax [1, 3]: 1.17 ± 0.41 h
- half-life ([1]; human plasma, single oral 10 mg, read-out: T½ (converted)): 3.42 ± 0.67 h
- Cmax [1, 4]: 68.1 ± 13 ng/mL
- Tmax [1, 4]: 2 ± 0.63 h
- half-life ([1]; human plasma, single oral 20 mg, read-out: T½ (converted)): 3.88 ± 0.67 h
- Tmax [1, 5]: 1.67 ± 0.82 h
- half-life ([1]; human plasma, single oral 40 mg, read-out: T½ (converted)): 3.78 ± 0.59 h
- Cmax [1, 6]: 266 ± 25.2 ng/mL
- Tmax [1, 6]: 1.6 ± 0.55 h
- half-life ([1]; human plasma, single oral 60 mg, read-out: T½ (converted)): 3.2 ± 0.79 h
- Increase of saliva secretion (number of subjects with the symptom) ([2]; single oral 5 mg): 0
- Increase of saliva secretion (number of subjects with the symptom) ([2]; single oral 10 mg): 2
- Increase of saliva secretion (number of subjects with the symptom) ([2]; single oral 20 mg): 2
- Increase of saliva secretion (number of subjects with the symptom) ([2]; single oral 60 mg): 5
- minimum dose by which increase of the salivary fluid secretion was observed ([2]; phase I study, oral administration): 10 mg
